According to ChEMBL document CHEMBL4371068, “Potent inhibitors of malarial P. Falciparum protein kinase G: Improving the cell activity of a series of imidazopyridines” (Bioorg Med Chem Lett, 2019):

Experiment: Apparent permeability of the compound in phosphate buffer saline at 50 to 200 uM after 5 hrs by PAMPA
Format: ADME

Row | SMILES | Papp at 5 h, up to 200 µM
1 | CN(C)Cc1ccn2c(-c3ccnc(N)n3)c(-c3ccc(F)cc3)nc2n1 | 11.8 ×10⁻⁶ cm/s
2 | CN(C)Cc1ccc2c(c1)nc(-c1ccc(F)cc1)n2-c1ccnc(N)n1 | 3.2 ×10⁻⁶ cm/s
3 | CN(C)Cc1cc2nc(-c3ccc(F)cc3)c(-c3ccnc(N)n3)n2cn1 | 5.8 ×10⁻⁶ cm/s
4 | CN1CCC(n2cc(Nc3nccc(-c4c(-c5ccc(F)cc5)nc5ccccn45)n3)cn2)CC1 | 12.4 ×10⁻⁶ cm/s
5 | Fc1ccc(-c2nc3ccccn3c2-c2ccnc(NC3CCOCC3)n2)cc1 | 14.5 ×10⁻⁶ cm/s
6 | CN(C)CCCNc1nccc(-c2c(-c3ccc(F)cc3)nc3ccccn23)n1 | 8.2 ×10⁻⁶ cm/s
7 | CN(C)CCNc1ccc2nc(-c3ccc(F)cc3)c(-c3ccnc(N)n3)n2n1 | 1 ×10⁻⁶ cm/s
8 | CN(C)Cc1ccc2c(-c3ccnc(N)n3)c(-c3ccc(F)cc3)nn2c1 | 18.5 ×10⁻⁶ cm/s
